Reference: US20260183275A1, “SUBSTITUTED QUINOLONE COMPOUNDS USEFUL AS INHIBITORS OF TLR9” (Bristol-Myers Squibb Company, priority 2022, published 2026)

Experiments:
Assay type in all cases: cell-based
[1] = biological target: T1, human TLR9 (Homo sapiens, UniProt Q9NR96); assay: TLR9 inhibition reporter assay (HEK-Blue cells, SEAP reporter); settings: HEK-Blue cells overexpressing human TLR9; stimulated with ODN2006 5 nM; SEAP read after 22 hour; dose range 0.05 nM-50 μM
T1 construct: host or cells: HEK-Blue cells
T1 sequence (Q9NR96 26-1032): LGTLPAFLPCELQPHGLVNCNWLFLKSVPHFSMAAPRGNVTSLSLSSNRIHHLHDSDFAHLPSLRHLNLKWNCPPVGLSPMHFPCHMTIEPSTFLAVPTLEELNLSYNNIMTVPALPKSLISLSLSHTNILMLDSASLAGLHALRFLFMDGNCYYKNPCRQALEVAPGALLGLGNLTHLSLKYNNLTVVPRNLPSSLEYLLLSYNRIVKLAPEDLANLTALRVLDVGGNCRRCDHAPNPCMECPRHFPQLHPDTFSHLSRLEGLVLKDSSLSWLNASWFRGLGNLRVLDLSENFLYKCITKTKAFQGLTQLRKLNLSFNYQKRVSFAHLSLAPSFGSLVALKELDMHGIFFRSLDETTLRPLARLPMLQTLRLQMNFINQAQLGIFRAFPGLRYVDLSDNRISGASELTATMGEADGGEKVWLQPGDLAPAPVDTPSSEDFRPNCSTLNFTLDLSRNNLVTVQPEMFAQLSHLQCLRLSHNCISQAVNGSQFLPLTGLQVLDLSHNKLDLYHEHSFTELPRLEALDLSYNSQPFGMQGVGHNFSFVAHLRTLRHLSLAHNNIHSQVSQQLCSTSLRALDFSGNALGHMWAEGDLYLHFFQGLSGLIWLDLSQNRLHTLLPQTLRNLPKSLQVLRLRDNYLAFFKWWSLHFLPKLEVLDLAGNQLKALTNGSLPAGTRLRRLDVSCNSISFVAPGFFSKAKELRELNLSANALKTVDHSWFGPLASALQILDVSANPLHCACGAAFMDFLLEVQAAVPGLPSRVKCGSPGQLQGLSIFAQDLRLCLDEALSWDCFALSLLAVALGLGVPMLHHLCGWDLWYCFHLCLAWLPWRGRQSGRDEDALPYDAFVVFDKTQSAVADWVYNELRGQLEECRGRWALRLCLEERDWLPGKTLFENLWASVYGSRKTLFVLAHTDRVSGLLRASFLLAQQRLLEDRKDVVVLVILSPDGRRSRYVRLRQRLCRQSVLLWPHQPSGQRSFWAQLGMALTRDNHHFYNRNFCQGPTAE
Experimental: (§1) HEK-Blue™-cells (Invivogen) overexpressing human TLR7, TLR8 or TLR9 receptors were used for screening inhibitors of these receptors using an inducible SEAP (secreted embryonic alkaline phosphatase) reporter gene under the control of the IFN-β minimal promoter fused to five NF-κB and AP-1-binding sites. Briefly, cells are seeded into Greiner 384 well plates (15000 cells per well for TLR7, 20,000 for TLR8 and 25,000 for TLR9) and then treated with test compounds in DMSO to yield a final dose response concentration range of 0.05 nM-50 μM. After a 30 minute compound pre-treatment at room temperature, the cells are then stimulated with a TLR7 ligand (gardiquimod at a final concentration of 7.5 μM), TLR8 ligand (R848 at a final concentration of 15.9 μM) or TLR9 ligand (ODN2006 at a final concentration of 5 nM) to activate NF-κB and AP-1 which induce the production of SEAP. After a 22 hour incubation at 37° C., 5% CO2, SEAP levels are determined with the addition of HEK-Blue™ Detection reagent (Invivogen), a cell culture medium that allows for detection of SEAP, according to manufacturer's specifications. The percent inhibition is determined as the % reduction in the HEK-Blue signal present in wells treated with agonist plus DMSO alone compared to wells treated with a known inhibitor.

[2] = biological target: T2, human TLR7 (Homo sapiens, UniProt Q9NYK1); assay: TLR7 inhibition reporter assay (HEK-Blue cells, SEAP reporter); settings: HEK-Blue cells overexpressing human TLR7; stimulated with gardiquimod 7.5 μM; SEAP read after 22 hour; dose range 0.05 nM-50 μM
T2 construct: host or cells: HEK-Blue cells
T2 sequence (Q9NYK1 27-1049): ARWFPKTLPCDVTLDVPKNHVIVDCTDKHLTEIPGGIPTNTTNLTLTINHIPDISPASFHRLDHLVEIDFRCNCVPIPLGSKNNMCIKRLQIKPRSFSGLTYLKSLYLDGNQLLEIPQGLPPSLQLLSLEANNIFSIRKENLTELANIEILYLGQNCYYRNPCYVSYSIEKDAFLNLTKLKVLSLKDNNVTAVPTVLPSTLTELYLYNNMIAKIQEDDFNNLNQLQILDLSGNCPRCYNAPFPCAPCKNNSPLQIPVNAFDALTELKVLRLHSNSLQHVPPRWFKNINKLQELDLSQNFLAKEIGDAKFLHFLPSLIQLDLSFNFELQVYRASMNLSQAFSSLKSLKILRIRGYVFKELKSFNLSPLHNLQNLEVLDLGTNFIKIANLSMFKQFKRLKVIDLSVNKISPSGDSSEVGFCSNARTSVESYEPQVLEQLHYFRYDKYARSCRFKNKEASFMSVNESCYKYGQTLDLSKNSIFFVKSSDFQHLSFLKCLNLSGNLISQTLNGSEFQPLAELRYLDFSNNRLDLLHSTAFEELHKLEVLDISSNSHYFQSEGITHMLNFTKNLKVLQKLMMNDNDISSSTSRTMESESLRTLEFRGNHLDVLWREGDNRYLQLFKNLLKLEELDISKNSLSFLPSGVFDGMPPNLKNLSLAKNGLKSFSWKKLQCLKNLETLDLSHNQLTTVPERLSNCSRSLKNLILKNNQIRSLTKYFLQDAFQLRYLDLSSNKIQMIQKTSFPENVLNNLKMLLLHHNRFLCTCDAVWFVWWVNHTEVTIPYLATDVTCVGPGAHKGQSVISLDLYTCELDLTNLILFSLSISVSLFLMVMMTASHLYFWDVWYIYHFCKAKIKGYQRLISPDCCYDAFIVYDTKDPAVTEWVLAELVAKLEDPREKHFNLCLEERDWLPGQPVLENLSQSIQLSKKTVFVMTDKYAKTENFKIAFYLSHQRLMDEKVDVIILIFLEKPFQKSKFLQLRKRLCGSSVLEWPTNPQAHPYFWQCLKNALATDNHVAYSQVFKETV
Experimental: as §1

[3] = biological target: T3, human TLR8 (Homo sapiens, UniProt Q9NR97); assay: TLR8 inhibition reporter assay (HEK-Blue cells, SEAP reporter); settings: HEK-Blue cells overexpressing human TLR8; stimulated with R848 15.9 μM; SEAP read after 22 hour; dose range 0.05 nM-50 μM
T3 construct: host or cells: HEK-Blue cells
T3 sequence (Q9NR97 27-1041): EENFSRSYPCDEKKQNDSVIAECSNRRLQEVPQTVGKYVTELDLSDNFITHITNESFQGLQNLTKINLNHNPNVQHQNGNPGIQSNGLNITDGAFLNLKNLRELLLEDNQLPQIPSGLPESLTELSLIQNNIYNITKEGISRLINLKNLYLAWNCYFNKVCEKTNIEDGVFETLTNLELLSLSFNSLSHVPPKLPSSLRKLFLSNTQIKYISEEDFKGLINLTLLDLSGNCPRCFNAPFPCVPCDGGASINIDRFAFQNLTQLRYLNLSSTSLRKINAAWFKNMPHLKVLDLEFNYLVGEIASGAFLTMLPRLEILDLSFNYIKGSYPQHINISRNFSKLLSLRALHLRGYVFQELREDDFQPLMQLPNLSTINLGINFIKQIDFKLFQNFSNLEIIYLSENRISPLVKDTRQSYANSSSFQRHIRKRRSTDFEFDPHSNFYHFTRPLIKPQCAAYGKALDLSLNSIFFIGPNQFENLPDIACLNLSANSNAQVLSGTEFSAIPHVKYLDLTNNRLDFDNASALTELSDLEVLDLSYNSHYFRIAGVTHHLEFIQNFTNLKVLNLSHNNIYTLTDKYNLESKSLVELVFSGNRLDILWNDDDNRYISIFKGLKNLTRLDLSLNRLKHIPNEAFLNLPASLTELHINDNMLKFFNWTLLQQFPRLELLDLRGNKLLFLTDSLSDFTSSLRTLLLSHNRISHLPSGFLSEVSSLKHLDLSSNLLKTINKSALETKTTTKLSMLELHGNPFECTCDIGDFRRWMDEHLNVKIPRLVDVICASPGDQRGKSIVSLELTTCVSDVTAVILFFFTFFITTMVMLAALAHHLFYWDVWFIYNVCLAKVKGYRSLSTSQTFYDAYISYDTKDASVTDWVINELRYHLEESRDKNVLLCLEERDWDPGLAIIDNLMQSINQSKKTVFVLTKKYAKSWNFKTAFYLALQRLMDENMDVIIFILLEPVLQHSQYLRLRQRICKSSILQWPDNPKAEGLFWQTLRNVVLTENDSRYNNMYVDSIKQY
Experimental: as §1

SMILES | IC50 [1] [nM] | IC50 [2] [nM] | IC50 [3] [nM]
CC(C)N1CCN(c2ccc(-c3ccc4[nH]c(=O)c(-c5ccc(OC(F)F)cc5)cc4c3)cc2)CC1 [Example 36, 3-[4-(difluoromethoxy)phenyl]-6-{4-[4-(propan-2-yl)piperazin-1-yl]phenyl}-1,2-dihydroquinolin-2-one] | 344 | ≥ 50000 | ≥ 50000
CC(C)N1CCN(c2ccc(-c3ccc4[nH]c(=O)c(-c5c(Cl)cccc5Cl)cc4c3)cc2)CC1 [Example 37] | 367 | 5560 | ≥ 50000
CC(C)N1CCN(c2ccc(-c3ccc4[nH]c(=O)c(-c5ccc(Cl)cc5Cl)cc4c3)cc2)CC1 [Example 38, 3-(2,4-dichlorophenyl)-6-{4-[4-(propan-2-yl)piperazin-1-yl]phenyl}-1,2-dihydroquinolin-2-one] | 376 | 8880 | ≥ 50000
CC(C)N1CCN(c2ccc(-c3ccc4[nH]c(=O)c(-c5ccc(Cl)cc5)cc4c3)cc2)CC1 [Example 39, 3-(4-chlorophenyl)-6-{4-[4-(propan-2-yl)piperazin-1-yl]phenyl}-1,2-dihydroquinolin-2-one] | 387 | ≥ 50000 | ≥ 50000
CC(C)N1CCN(c2ccc(-c3ccc4[nH]c(=O)c(-c5c(F)c(F)c(F)c(F)c5F)cc4c3)cc2)CC1 [Example 40, 3-(2,3,4,5,6-pentafluorophenyl)-6-{4-[4-(propan-2-yl)piperazin-1-yl]phenyl}-1,2-dihydroquinolin-2-one] | 399 | ≥ 50000 | ≥ 50000
CC(C)N1CCN(c2ccc(-c3ccc4[nH]c(=O)c(-c5c(F)cc(F)cc5F)cc4c3)cc2)CC1 [Example 41, 6-{4-[4-(propan-2-yl)piperazin-1-yl]phenyl}-3-(2,4,6-trifluorophenyl)-1,2-dihydroquinolin-2-one] | 411 | 4770 | ≥ 50000

More lines, in order of falling IC50 [1], values ahead:

IC50 [1] [nM] | IC50 [2] [nM] | IC50 [3] [nM] | SMILES
427 | 2140 | 2470 | CC(C)N1CCN(c2ccc(-c3ccc4[nH]c(=O)c(-c5ccccc5F)cc4c3)cc2)CC1 [Example 42, 3-(2-fluorophenyl)-6-{4-[4-(propan-2-yl)piperazin-1-yl]phenyl}-1,2-dihydroquinolin-2-one]
314 | 1290 | 14100 | CC(C)N1CCN(c2ccc(-c3ccc4[nH]c(=O)c(-c5nn(C)c6ccccc56)cc4c3)cc2)CC1 [Example 35, 3-(1-methyl-1H-indazol-3-yl)-6-{4-[4-(propan-2-yl)piperazin-1-yl]phenyl}-1,2-dihydroquinolin-2-one]
300 | 2230 | 4700 | CC(C)N1CCN(c2ccc(-c3ccc4[nH]c(=O)c(-c5ccccc5C(F)(F)F)cc4c3)cc2)CC1 [Example 33, 6-{4-[4-(propan-2-yl)piperazin-1-yl]phenyl}-3-[2-(trifluoromethyl)phenyl]-1,2-dihydroquinolin-2-one]
293 | 418 | 17 | CC(C)N1CCN(c2ccc(-c3ccc4[nH]c(=O)c(-c5cccnc5)cc4c3)cc2)CC1 [Example 32, 6-{4-[4-(propan-2-yl)piperazin-1-yl]phenyl}-3-(pyridin-3-yl)-1,2-dihydroquinolin-2-one]
286 | 42600 | 16700 | CC(C)N1CCN(c2ccc(-c3ccc4[nH]c(=O)c(-c5ccc(F)cc5)cc4c3)cc2)CC1 [Example 31, 3-(4-fluorophenyl)-6-{4-[1-(propan-2-yl)piperazin-1-yl]phenyl}-1,2-dihydroquinolin-2-one]
277 | 2160 | 5220 | COc1cccc(-c2cc3cc(-c4ccc(N5CCN(C(C)C)CC5)cc4)ccc3[nH]c2=O)c1 [Example 30, 3-(3-methoxyphenyl)-6-{4-[4-(propan-2-yl)piperazin-1-yl]phenyl}-1,2-dihydroquinolin-2-one]
275 | 5860 | 1830 | CC(C)N1CCN(c2ccc(-c3ccc4[nH]c(=O)c(-c5ccccc5NS(C)(=O)=O)cc4c3)cc2)CC1 [Example 29, N-[2-(2-oxo-6-{4-[4-(propan-2-yl)piperazin-1-yl]phenyl}-1,2-dihydroquinolin-3-yl)phenyl]methanesulfonamide]
